The source of these data is patent publication US20250051338A1, “TYK2 DEGRADERS AND USES THEREOF” (Kymera Therapeutics, Inc., priority 2021, published 2025).

Common to all, as to assay type: cell-based
The target in assay [1] is T1, TYK2 (Homo sapiens, UniProt P29597). The experiment in a line: TYK2 degradation MSD assay in human PBMC cells. Set-up: endogenous in cells; host or cells: human PBMC. The following applies: 4 to 24 hours incubation, read-out: TYK2 MSD DC50 rating in human PBMC. The gist of the method: (§1)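 MSD electrochemiluminescence readout of residual TYK2 in RIPA lysates after 4–24 h compound exposure at 37° C. Dosing: 9 concentrations, 1:3 steps, top 1 to 10 μM. DC50 fitted by four-parameter inhibitor vs. response regression.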
T1 sequence (P29597 whole entry): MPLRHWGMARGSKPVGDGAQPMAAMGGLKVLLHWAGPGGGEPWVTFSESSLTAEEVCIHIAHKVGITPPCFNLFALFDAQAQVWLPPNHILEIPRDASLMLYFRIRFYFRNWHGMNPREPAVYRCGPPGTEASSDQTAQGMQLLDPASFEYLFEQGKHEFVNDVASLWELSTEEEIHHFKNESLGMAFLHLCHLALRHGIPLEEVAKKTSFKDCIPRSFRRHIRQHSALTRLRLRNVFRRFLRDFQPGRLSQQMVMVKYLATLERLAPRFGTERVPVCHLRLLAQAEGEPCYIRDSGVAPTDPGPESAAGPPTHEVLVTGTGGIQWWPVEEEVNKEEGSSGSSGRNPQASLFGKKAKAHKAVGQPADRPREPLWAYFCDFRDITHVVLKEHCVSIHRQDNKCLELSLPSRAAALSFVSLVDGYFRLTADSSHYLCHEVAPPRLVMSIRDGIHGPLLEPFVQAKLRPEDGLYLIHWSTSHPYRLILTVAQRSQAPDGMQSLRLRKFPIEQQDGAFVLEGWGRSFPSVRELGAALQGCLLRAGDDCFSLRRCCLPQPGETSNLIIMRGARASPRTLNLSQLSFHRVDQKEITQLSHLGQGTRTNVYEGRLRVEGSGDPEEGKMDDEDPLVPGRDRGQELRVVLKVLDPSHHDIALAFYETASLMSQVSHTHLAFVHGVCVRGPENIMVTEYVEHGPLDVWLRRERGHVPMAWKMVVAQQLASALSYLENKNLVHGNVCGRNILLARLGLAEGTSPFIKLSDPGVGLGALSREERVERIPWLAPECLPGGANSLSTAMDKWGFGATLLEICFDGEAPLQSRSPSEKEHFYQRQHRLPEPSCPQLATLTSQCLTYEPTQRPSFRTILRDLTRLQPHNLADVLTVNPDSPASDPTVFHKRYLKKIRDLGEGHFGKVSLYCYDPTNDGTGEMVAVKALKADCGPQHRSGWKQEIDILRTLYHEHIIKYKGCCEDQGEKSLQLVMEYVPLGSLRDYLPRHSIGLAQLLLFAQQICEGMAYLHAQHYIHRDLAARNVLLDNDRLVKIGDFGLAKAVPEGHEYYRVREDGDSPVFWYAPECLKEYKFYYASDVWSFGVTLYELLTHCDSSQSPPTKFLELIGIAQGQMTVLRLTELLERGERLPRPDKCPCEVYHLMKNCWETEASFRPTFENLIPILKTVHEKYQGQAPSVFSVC

Assay [2] has as its target T1, TYK2. The experiment in a line: TYK2 degradation MSD assay in EBV-B cells. Set-up: endogenous in cells; host or cells: EBV-B cells. The following applies: 4 to 24 hours incubation, read-out: TYK2 MSD DC50 rating in EBV-B. The gist of the method: as §1
Assay [3] has as its target T1, TYK2. Kind of assay: TYK2 degradation MSD assay in OCI-LY10 cells. Set-up: endogenous in cells; host or cells: EBV-B cells. Particulars: 4 to 24 hours incubation, read-out: TYK2 MSD DC50 rating in OCI-LY10. The procedure, abridged: as §1

As a reminder, the DC50 is the concentration at which degradation of the target reaches its halfway point.

For `CNc1cc(Nc2cccn(-c3ccc(C(=O)N(C)Cc4ccc(-c5ccc6c(c5)n(C)c(=O)n6C5CCC(=O)NC5=O)cn4)cn3)c2=O)nn2c(C(=O)N[C@@H]3C[C@@H]3F)cnc12` (stereo partly drawn) [Example K387], the DC50 is < 1 nM on TYK2 [1], > 100 nM on TYK2 [2] and > 100 nM on TYK2 [3].

As to `CNc1cc(Nc2cccn(-c3ccc(C(=O)N4CC5(CCN(c6ccc7c(c6)n(C)c(=O)n7C6CCC(=O)NC6=O)CC5)C4)cn3)c2=O)nn2c(C(=O)N[C@@H]3C[C@@H]3F)cnc12` (stereo partly drawn) [Example K388], the DC50 at TYK2 [1], at TYK2 [2] and on TYK2 [3] was > 100 nM each time.

Consider `CNc1cc(Nc2cccn(-c3ccc(C(=O)N4CC5(CCN(c6cccc7c6n(C)c(=O)n7C6CCC(=O)NC6=O)CC5)C4)cn3)c2=O)nn2c(C(=O)N[C@@H]3C[C@@H]3F)cnc12` (stereo partly drawn) [Example K389], for which the DC50 at TYK2 [1], on TYK2 [2] and on TYK2 [3] was < 1 nM each time.

Consider `CNc1cc(Nc2cccn(-c3ccc(C(=O)N4CCC(CN(C)c5ccc6c(c5)n(C)c(=O)n6C5CCC(=O)NC5=O)CC4)cn3)c2=O)nn2c(C(=O)N[C@@H]3C[C@@H]3F)cnc12` (stereo partly drawn) [Example K390], for which the DC50 on TYK2 [1] was < 1 nM; at TYK2 [2], > 100 nM; on TYK2 [3], > 100 nM.

In the case of `CNc1cc(Nc2cccn(-c3ccc(C(=O)N4CCC5(CC4)CC(Cc4ccc6c(c4)n(C)c(=O)n6C4CCC(=O)NC4=O)C5)cn3)c2=O)nn2c(C(=O)N[C@@H]3C[C@@H]3F)cnc12` (stereo partly drawn) [Example K391], the DC50 on TYK2 [1] is < 1 nM; at TYK2 [2], < 1 nM; on TYK2 [3], > 100 nM.

`CNc1cc(Nc2cccn(-c3ccc(C(=O)N4CCC5(CC4)CCN(c4ccc6c(c4)n(C)c(=O)n6C4CCC(=O)NC4=O)C5)cn3)c2=O)nn2c(C(=O)N[C@@H]3C[C@@H]3F)cnc12` (stereo partly drawn) [Example K392]: the DC50 was < 1 nM at TYK2 [1], > 100 nM on TYK2 [2] and > 100 nM at TYK2 [3].

As for `CNc1cc(Nc2cccn(-c3ccc(C(=O)N4CCC(OC5CC(c6ccc7c(c6)n(C)c(=O)n7C6CCC(=O)NC6=O)C5)CC4)cn3)c2=O)nn2c(C(=O)N[C@@H]3C[C@@H]3F)cnc12` (stereo partly drawn) [Example K393], the DC50 on TYK2 [1] was < 1 nM; on TYK2 [2] it was > 100 nM; on TYK2 [3], > 100 nM.

Regarding `CNc1cc(Nc2cccn(-c3ccc(C(=O)N4CCC(OCC#Cc5ccc6c(c5)n(C)c(=O)n6C5CCC(=O)NC5=O)CC4)cn3)c2=O)nn2c(C(=O)N[C@@H]3C[C@@H]3F)cnc12` (stereo partly drawn) [Example K394], the DC50 is > 100 nM on TYK2 [1], 1 to 10 nM at TYK2 [2] and > 100 nM on TYK2 [3].

In the case of `CNc1cc(Nc2cccn(-c3ccc(C(=O)N4CCC(n5cc(-c6ccc7c(c6)n(C)c(=O)n7C6CCC(=O)NC6=O)cn5)CC4)cn3)c2=O)nn2c(C(=O)N[C@@H]3C[C@@H]3F)cnc12` (stereo partly drawn) [Example K395], the half-maximal degradation concentration (DC50) is > 100 nM on TYK2 [1], < 1 nM at TYK2 [2] and > 100 nM on TYK2 [3].

Consider `CNc1cc(Nc2cccn(C3CCN(C(=O)N(C)C4CCN(Cc5cccc6c5n(C)c(=O)n6C5CCC(=O)NC5=O)CC4)CC3)c2=O)nn2c(C(=O)N[C@@H]3C[C@@H]3F)cnc12` (stereo partly drawn) [Example K396], for which the DC50 on TYK2 [1] was > 100 nM; on TYK2 [2], 1 to 10 nM; on TYK2 [3], > 100 nM.

In the case of `CNc1cc(Nc2cccn(C3CCN(C(=O)N(C)CC4CCN(Cc5cccc6c5n(C)c(=O)n6C5CCC(=O)NC5=O)CC4)CC3)c2=O)nn2c(C(=O)N[C@@H]3C[C@@H]3F)cnc12` (stereo partly drawn) [Example K397], the values for the DC50 on TYK2 [1], on TYK2 [2] and on TYK2 [3] were > 100 nM, 1 to 10 nM and > 100 nM, respectively.

For the compound `CNc1cc(Nc2cccn(C3CCN(C(=O)N(C)CC4CCN(c5ccc6c(c5)n(C)c(=O)n6C5CCC(=O)NC5=O)CC4)CC3)c2=O)nn2c(C(=O)N[C@@H]3C[C@@H]3F)cnc12` (stereo partly drawn) [Example K398], the 50% degradation concentration (DC50) is > 100 nM at TYK2 [1], < 1 nM at TYK2 [2] and > 100 nM on TYK2 [3].

`CNc1cc(Nc2cccn(C3CCN(C(=O)NCCCCCCCCCCc4ccc5c(c4)n(C)c(=O)n5C4CCC(=O)NC4=O)CC3)c2=O)nn2c(C(=O)N[C@@H]3C[C@@H]3F)cnc12` (stereo partly drawn) [Example K399]: the DC50 is > 100 nM at TYK2 [1], 1 to 10 nM on TYK2 [2] and > 100 nM on TYK2 [3].

`Cc1cc(C)cc(Nc2cc(NCCCCCCCCc3ccc4c(c3)n(C)c(=O)n4C3CCC(=O)NC3=O)c3ncc(C(=O)N[C@@H]4C[C@@H]4F)n3n2)c1` (stereo partly drawn) [Example K400]: the DC50 on TYK2 [1], at TYK2 [2] and at TYK2 [3] was > 100 nM throughout.

Regarding `Cc1cc(C)cc(Nc2cc(NCCCCCCc3ccc4c(c3)n(C)c(=O)n4C3CCC(=O)NC3=O)c3ncc(C(=O)N[C@@H]4C[C@@H]4F)n3n2)c1` (stereo partly drawn) [Example K401], the DC50 on TYK2 [1], on TYK2 [2] and on TYK2 [3] was > 100 nM each time.

`Cc1cc(C)cc(Nc2cc(NCCCCc3ccc4c(c3)n(C)c(=O)n4C3CCC(=O)NC3=O)c3ncc(C(=O)N[C@@H]4C[C@@H]4F)n3n2)c1` (stereo partly drawn) [Example K402]: the DC50 on TYK2 [1], at TYK2 [2] and on TYK2 [3] was > 100 nM in each case.

`Cn1c(=O)n(C2CCC(=O)NC2=O)c2cccc(C3CN(C4CCN(Cc5ccc(-c6cccc(Nc7ccc8ncc(C(=O)NC9CC9)n8n7)c6)nc5)CC4)C3)c21` (stereo not drawn) [Example K403]: the 50% degradation concentration (DC50) at TYK2 [1], on TYK2 [2] and on TYK2 [3] was > 100 nM throughout.

Regarding `Cn1c(=O)n(C2CCC(=O)NC2=O)c2ccc(C#CC3CCN(Cc4ccc(-c5cccc(Nc6ccc7ncc(C(=O)NC8CC8)n7n6)c5)nc4)CC3)cc21` (stereo not drawn) [Example K404], the half-maximal degradation concentration (DC50) at TYK2 [1], on TYK2 [2] and on TYK2 [3] was > 100 nM in each case.

With `Cn1c(=O)n(C2CCC(=O)NC2=O)c2ccc(C3CN(C4CCN(Cc5ccc(-c6cccc(Nc7ccc8ncc(C(=O)NC9CC9)n8n7)c6)nc5)CC4)C3)cc21` (stereo not drawn) [Example K405], the DC50 on TYK2 [1], on TYK2 [2] and at TYK2 [3] was > 100 nM in each case.

Regarding `Cn1c(=O)n(C2CCC(=O)NC2=O)c2ccc(N3CCN(Cc4ccc(-c5cccc(Nc6ccc7ncc(C(=O)NC8CC8)n7n6)c5)nc4)CC3)cc21` (stereo not drawn) [Example K406], the DC50 at TYK2 [1], on TYK2 [2] and at TYK2 [3] was > 100 nM in each case.

For `CNc1cc(Nc2cccn(-c3ccc(C(=O)N4CCC(OCCCc5ccc6c(c5)n(C)c(=O)n6C5CCC(=O)NC5=O)CC4)cn3)c2=O)nn2c(C(=O)N[C@@H]3C[C@@H]3F)cnc12` (stereo partly drawn) [Example K407], the values for the DC50 on TYK2 [1], on TYK2 [2] and on TYK2 [3] were > 100 nM, > 100 nM and < 1 nM, respectively.

Consider `CNc1cc(Nc2cccn(-c3ccc(C(=O)N4CCC(CN5CCC(c6ccc7c(c6)n(C)c(=O)n7C6CCC(=O)NC6=O)CC5)CC4)cn3)c2=O)nn2c(C(=O)N[C@@H]3C[C@@H]3F)cnc12` (stereo partly drawn) [Example K408], for which the DC50 is > 100 nM at TYK2 [1], > 100 nM at TYK2 [2] and < 1 nM on TYK2 [3].

As for `CNc1cc(Nc2cccn(-c3ccc(C(=O)N4CCC5(CCN(c6cnc(C#Cc7ccc8c(c7)n(C)c(=O)n8C7CCC(=O)NC7=O)nc6)C5=O)C4)cn3)c2=O)nn2c(C(=O)N[C@@H]3C[C@@H]3F)cnc12` (stereo partly drawn) [Example K409], the DC50 at TYK2 [1] was > 100 nM; on TYK2 [2], > 100 nM; at TYK2 [3], 1 to 10 nM.
